For experiment [1], the system named is AsPC1. Briefly: MTS cell proliferation assay, AsPC1. The format is cell-based, human. The settings on record: Homo sapiens, read-out: IC50 AsPC1 (Table 1). The protocol: (§1) Cancer cells (breast cancer cell lines MCF-7, MDA-MB-361, SKBR3 and MDA-MB-231, pancreatic cancer cell lines AsPC-1. BxPC3 and Panc-1) were seeded in 96-well plates at a density of 1000-2000 cells/well and treated with DMSO, 0.01, 0.1, 1, 5, 10, and […] of STAT3 individual inhibitors for 72 hrs. Proliferation was measured by treating cells with the 3-(4,5-dimethylthiazol-2-yl)-5-(3-carboxymethoxyphenyl)-2-(4-sulfophenyl)-2H-tetrazolium) (MTS) in a CellTiter 96t AQueous Non-Radioactive Cell Proliferation Assay kit from Promega, Madison, Wis., USA). Absorbance of all wells was determined by measuring OD at 550 nm after 1 hr incubation at 37° C. on a 96-well iMark™ Microplate Absorbance Reader (BioRad, Hercules, Calif.). Each individual compound was tested in quadruplicate wells for each concentration, and the results were reported as mean absorption±s.e.
(§2) In Vitro Determination of Effects of Synthesized Compounds on Cancer Cell Proliferation. Cancer cells (breast cancer cell lines MCF-7 and MDA-MB-231, pancreatic cancer cell lines AsPC-1 and Panc-1) were seeded in 96-well plates at a density of 2×10^3 cells/well and treated with DMSO, 0.01, 0.1, 1, 5, 10, and 100 μM of individual STAT3 inhibitors for 72 h. Proliferation was measured by treating cells with the 3-(4,5-dimethylthiazol-2-yl)-5-(3-carboxymethoxyphenyl)-2-(4-sulfophenyl)-2H-tetrazolium) (MTS) in a CellTiter 96t Aqueous Non-Radioactive Cell Proliferation Assay kit (Promega, Madison, Wis., USA). Absorbance of all wells was determined by measuring OD at 550 nm after 1 h incubation at 37° C. on a 96-well iMark™ Microplate Absorbance Reader (BioRad, Hercules, Calif.). Each individual compound was tested in quadruplicate wells for each concentration.
A general note: Tetrazolium dyes change colour on reduction, which living cells bring about.

The test system of experiment [2] is BxPc-3H. As to the kind of experiment: MTS cell proliferation assay, BxPc-3H. The format is cell-based. The settings on record: Homo sapiens; pancreatic cancer, 72 hrs; >10 = no effect; read-out: IC50 BxPc-3H (Table 1). The protocol: as §1
Experiment [3] has as its system SKBR3. Briefly: MTS cell proliferation assay, SKBR3. Conditions: Homo sapiens, SK-BR-3; ER-negative breast cancer, 72 hrs; >10 = no effect; read-out: IC50 SKBR3 (Table 1). It counts as cell-based. On the procedure:
as §1

In experiment [4] the test system is MDA-MB-231. Briefly: MTS cell proliferation assay, MDA-MB-231. It counts as cell-based, human. Conditions: Homo sapiens, read-out: IC50 MDA-MB-231 (Table 1). An outline of the steps: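 Cells are exposed to DMSO or STAT3 inhibitors at 0.01-100 μM for 72 h, or at 1, 5 and 10 μM. Proliferation is read by MTS absorbance at 550 or 560 nm after 1 h at 37 °C. Each concentration is run in quadruplicate wells.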

Experiment [5] deals with Panc-1. Briefly: MTS cell proliferation assay, Panc-1. The format is cell-based, human. Conditions: Homo sapiens, read-out: IC50 Panc-1 (Table 1). On the procedure: as §1, §2
Experiment [6] has as its system MDA-MB-361. As to the kind of experiment: MTS cell proliferation assay, MDA-MB-361. It counts as cell-based. The settings on record: Homo sapiens, ER-positive breast cancer, 72 hrs, >10 = no effect, read-out: IC50 MDA-MB-361 (Table 1). The protocol: as §1
Experiment [7] has as its system MCF-7. Briefly: MTS cell proliferation assay, MCF-7. The format is cell-based, human. In short, it runs like this: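 MCF-7 human breast cancer cells were exposed to test compounds at a range of concentrations, then proliferation was measured with the MTS reagent from Promega's CellTiter 96 AQueous Non-Radioactive Cell Proliferation Assay kit. After 1 hr at 37° C., OD at 550 nm was read on a 96-well iMark Microplate Absorbance Reader, with quadruplicate wells per concentration.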

Where [8] appears, read: ASPC1, pancreatic cancer, 72 hrs, >10 = no effect.
[9] abbreviates: MDA-MB-231, ER-negative breast cancer, 72 hrs, >10 = no effect.
Setting [10] is: PANC-1, pancreatic cancer, 72 hrs, >10 = no effect.
[11] abbreviates: Homo sapiens, MCF7, 72 h; read-out: IC50 MCF-7 (Table 1).
Setting [12] is: Homo sapiens, MCF7, 72 h, read-out: IC50 MCF-7 (Table 1).
Setting [13] is: MCF-7, 48 hr, μM concentrations.

Results on 14 compounds are retold here after patent US9884863B2, “STAT3 inhibitor” (Board of Regents, The University of Texas System, priority 2013, dated 2018).

Like-named read-outs stand apart in the source and are kept apart here. A value given as a limit tells only on which side of the number the result lay.

On to `C[C@H](NC(=O)c1cc(-c2ccccc2)nc2ccccc12)c1ccccc1` [HJC-1-28, 2-Phenyl-quinoline-4-carboxylic acid (1-phenyl-ethyl)amide], for which the IC50 (as a rule, the concentration needed to halve the response being measured) in experiment [1] (setting [8]) was greater than 10 µM; in experiment [2], 16.4 µM; in experiment [3], 45.9 µM; in experiment [4] (setting [9]), 86 µM; in experiment [5] (setting [10]), 15.4 µM; in experiment [6], 132 µM. In addition, the IC50 in experiment [7] (setting [11]) is 2.24 µM.
As to `CC(=O)Nc1ccc(NC(=O)c2cc(Cl)ccc2O)c(Cl)c1` [HJC-1-40, N-(4-Acetylamino-2-chlorophenyl)-5-chloro-2-hydroxybenzamide], the IC50 was 37.6 µM in experiment [1] (setting [8]); greater than 10 µM in experiment [2]; 11.2 µM in experiment [3]; 66.3 µM in experiment [4] (setting [9]); greater than 10 µM in experiment [5] (setting [10]); 22.8 µM in experiment [6]. Besides, the IC50 in experiment [7] (setting [11]) was greater than 10 µM.
On to `O=C(Nc1ccc([N+](=O)[O-])cc1Cl)c1cc(-c2ccccc2)nc2ccccc12` [HJC-1-17, 2-Phenyl-quinoline-4-carboxylic acid (2-chloro-4-nitro-phenyl)amide], for which the IC50 in experiment [1] (ASPC1, 72 h) was greater than 10 µM; in experiment [2] it was greater than 10 µM; in experiment [3], greater than 10 µM; in experiment [4] (MDA-MB-231, 72 h), greater than 10 µM; in experiment [5] (PANC-1, 72 h) it was greater than 10 µM; in experiment [6], 17.4 µM. In experiment [7] (setting [12]), the IC50 was found to be 15.9 µM.
As for `CS(=O)(=O)Nc1ccc(NC(=O)c2cc(Cl)ccc2O)c(Cl)c1` [HJC-1-31, 5-Chloro-N-(2-chloro-4-methanesulfonylamino-phenyl)-2-hydroxybenzamide], the IC50 in experiment [1] (setting [8]) was greater than 10 µM; in experiment [2], greater than 10 µM; in experiment [3], greater than 10 µM; in experiment [4] (setting [9]), greater than 10 µM; in experiment [5] (setting [10]) it was 0.84 µM; in experiment [6] it was 43 µM. Also, the IC50 in experiment [7] (setting [11]) is greater than 10 µM.
Turning to `O=C(Nc1ccc([N+](=O)[O-])cc1Cl)c1cc(Cl)ccc1OCCN1CCOCC1` [HJC-1-14, 5-Chloro-N-(2-chloro-4-nitro-phenyl)-2-(2-morpholin-4-yl-ethoxy)benzamide], the IC50 is 73.2 µM in experiment [1] (ASPC1, 72 h); greater than 10 µM in experiment [2]; 5.1 µM in experiment [3]; 17.9 µM in experiment [4] (MDA-MB-231, 72 h); greater than 10 µM in experiment [5] (PANC-1, 72 h); 12.6 µM in experiment [6]. Also, the half-inhibitory concentration (IC50) in experiment [7] (setting [12]) came to 9.87 µM.
Take `Nc1ccc(NC(=O)c2cc(Cl)ccc2O)c(Cl)c1` [HJC-1-29, N-(4-Amino-2-chloro-phenyl)-5-chloro-2-hydroxy-benzamide]: the IC50 was greater than 10 µM in experiment [1] (setting [8]); greater than 10 µM in experiment [2]; 16.1 µM in experiment [3]; greater than 10 µM in experiment [4] (setting [9]); greater than 10 µM in experiment [5] (setting [10]); 14.9 µM in experiment [6]. In addition, in experiment [7] (setting [11]), the IC50 is greater than 10 µM.
Turning to `O=C(Nc1nnc(-c2ccco2)o1)c1cc(Cl)ccc1O` [HJC-1-51, 5-Chloro-N-(5-furan-2-yl-[1,3,4]oxadiazol-2-yl)-2-hydroxybenzamide], the IC50 was greater than 10 µM in experiment [1] (setting [8]); 200 µM in experiment [2]; 42.4 µM in experiment [3]; greater than 10 µM in experiment [4] (setting [9]); greater than 10 µM in experiment [5] (setting [10]); greater than 10 µM in experiment [6]. The IC50 in experiment [7] (setting [11]) is greater than 10 µM.
Turning to `C[C@H](NC(=O)c1cc(Cl)ccc1O)c1ccccc1` [HJC-1-30, 5-Chloro-2-hydroxy-N-(1-phenyl-ethyl)benzamide], the IC50 was 7.54 µM in experiment [1] (setting [8]); 7.26 µM in experiment [2]; 6.51 µM in experiment [3]; 8.88 µM in experiment [4] (setting [9]); 8.44 µM in experiment [5] (setting [10]); 6.39 µM in experiment [6]. In addition, the IC50 in experiment [7] (setting [11]) was found to be 0.9 µM. For the same compound, the “inhibition on breast cancer cell proliferation (FIG. 1)” value (“inhibition” for short) in experiment [7] (setting [13]) is listed as “significant inhibition”.
For the compound `O=C(Nc1ccc2c(c1)S(=O)(=O)C=C2)c1cc(-c2ccccc2)nc2ccccc12` [HJC-1-23, 2-Phenyl-quinoline-4-carboxylic acid (1,1-dioxo-1H-1λ^6-benzo[b]thiophen-6-yl)-amide], the IC50 in experiment [1] (ASPC1, 72 h) is 1.25 µM; in experiment [2] it was 0.2 µM; in experiment [3], 0.22 µM; in experiment [4] (MDA-MB-231, 72 h), 0.29 µM; in experiment [5] (PANC-1, 72 h), 0.26 µM; in experiment [6], 0.24 µM. Moreover, the IC50 in experiment [7] (setting [12]) was 0.1 µM. In addition, in experiment [7] (setting [13]), the “inhibition” value is given as “significant inhibition”.
Consider `CC(=O)Nc1ccc(NC(=O)c2cc(Cl)ccc2OC(C)=O)c(Cl)c1` [HJC-1-37, Acetic acid 2-(4-acetylamino-2-chloro-phenylcarbamoyl)-4-chlorophenyl ester], for which the IC50 was 11.6 µM in experiment [1] (setting [8]); 13.2 µM in experiment [2]; 9.14 µM in experiment [3]; greater than 10 µM in experiment [4] (setting [9]); 27.9 µM in experiment [5] (setting [10]); 9.23 µM in experiment [6]. In experiment [7] (setting [11]), the IC50 was found to be 11.7 µM.
As to `O=C(Nc1ccc([N+](=O)[O-])cc1Cl)c1cc(Cl)ccc1OC1CCNCC1` [HJC-1-25, 5-Chloro-N-(2-chloro-4-nitro-phenyl)-2-(piperidin-4-yloxy)benzamide], the IC50 in experiment [1] (setting [8]) stood at 2.76 µM; in experiment [2] it was 0.27 µM; in experiment [3] it was 0.28 µM; in experiment [4] (setting [9]), 0.29 µM; in experiment [5] (setting [10]) it was 0.54 µM; in experiment [6], 0.18 µM. Further, in experiment [7] (setting [11]), the IC50 is 0.25 µM. In addition, the “inhibition” value in experiment [7] (setting [13]) is “significant inhibition”.
For `O=C(Nc1ccc2c(c1)S(=O)(=O)C=C2)c1cc(-c2ccccc2)nc(-c2ccccc2)c1` [HJC-1-36, N-(1,1-Dioxo-1H-1λ^6-benzo[b]thiophen-6-yl)-2,6-diphenyl-isonicotinamide], the IC50 in experiment [1] (setting [8]) came to 0.12 µM; in experiment [2], 0.27 µM; in experiment [3] it was 0.2 µM; in experiment [4] (setting [9]), 0.45 µM; in experiment [5] (setting [10]), 0.31 µM; in experiment [6], 0.23 µM. Moreover, the IC50 in experiment [7] (setting [11]) worked out at 0.65 µM. The “inhibition” value in experiment [7] (setting [13]) is reported as “significant inhibition”.
In the case of `O=C(Nc1ccc2c(c1)S(=O)(=O)C=C2)c1cc(Cl)ccc1O` [HJC-1-49, 5-Chloro-N-(1,1-dioxo-1H-1λ^6-benzo[b]thiophen-6-yl)-2-hydroxybenzamide], the IC50 turned out to be 1.92 µM in experiment [1] (setting [8]); 1.16 µM in experiment [2]; 0.72 µM in experiment [3]; 1.64 µM in experiment [4] (setting [9]); 2.34 µM in experiment [5] (setting [10]); 2.37 µM in experiment [6]. Besides, the IC50 in experiment [7] (setting [11]) turned out to be 0.91 µM. For the same compound, the “inhibition” value in experiment [7] (setting [13]) is listed as “significant inhibition”.
With `O=C(Nc1ccc2c(c1)S(=O)(=O)C=C2)c1c2ccccc2nc2ccccc12` [HJC-1-41, Acridine-9-carboxylic acid (1,1-dioxo-1H-1λ^6-benzo[b]thiophen-6-yl)amide], the IC50 was greater than 10 µM in experiment [1] (ASPC1, 72 h); greater than 10 µM in experiment [2]; greater than 10 µM in experiment [3]; greater than 10 µM in experiment [4] (MDA-MB-231, 72 h); greater than 10 µM in experiment [5] (PANC-1, 72 h); 170 µM in experiment [6]. Also, in experiment [7] (setting [12]), the IC50 is greater than 10 µM.
